Measurements taken from PubChem BioAssay (NCI).
Where “and” joins values, the source holds several entries; their conditions need not be identical. Identical values can stand only once.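 A five-concentration, 48-hour dose response in 96-well plates underlies each endpoint, interpolated linearly between surrounding concentrations. GI50 = concentration required for 50% inhibition of growth. TGI marks complete inhibition of growth.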

Assays:
Assay in all cases: DTP human tumour cell line panel, 48 h
OVCAR-8 ovarian = tested on: OVCAR-8 ovarian
PC-3 prostate = tested on: PC-3 prostate
MDA-N = tested on: MDA-N
SK-MEL-2 melanoma = tested on: SK-MEL-2 melanoma
SN12C renal = tested on: SN12C renal
DLD-1 colon = tested on: DLD-1 colon
CAKI-1 renal = tested on: CAKI-1 renal
MDA-MB-435 = tested on: MDA-MB-435
LXFL 529 NSCLC = tested on: LXFL 529 NSCLC
NCI-H226 lung = tested on: NCI-H226 lung
SNB-19 CNS = tested on: SNB-19 CNS
786-0 renal = tested on: 786-0 renal
MOLT-4 leukemia = tested on: MOLT-4 leukemia
LOX IMVI melanoma = tested on: LOX IMVI melanoma
OVCAR-3 ovarian = tested on: OVCAR-3 ovarian
SW-620 colon = tested on: SW-620 colon
U251 CNS = tested on: U251 CNS
BT-549 breast = tested on: BT-549 breast
RPMI-8226 leukemia = tested on: RPMI-8226 leukemia
SF-295 CNS = tested on: SF-295 CNS
NCI-H522 lung = tested on: NCI-H522 lung
HCT-116 colon = tested on: HCT-116 colon
HT29 colon = tested on: HT29 colon
EKVX NSCLC = tested on: EKVX NSCLC
DU-145 prostate = tested on: DU-145 prostate
ACHN renal = tested on: ACHN renal
HOP-62 NSCLC = tested on: HOP-62 NSCLC
DMS 273 small cell lung = tested on: DMS 273 small cell lung
M14 melanoma = tested on: M14 melanoma
DMS 114 small cell lung = tested on: DMS 114 small cell lung
SK-OV-3 ovarian = tested on: SK-OV-3 ovarian
UO-31 renal = tested on: UO-31 renal
SF-539 CNS = tested on: SF-539 CNS
NCI-H460 lung = tested on: NCI-H460 lung
HOP-92 NSCLC = tested on: HOP-92 NSCLC
TK-10 renal = tested on: TK-10 renal
HL-60(TB) leukemia = tested on: HL-60(TB) leukemia
SF-268 CNS = tested on: SF-268 CNS
XF 498 CNS = tested on: XF 498 CNS
KM20L2 colon = tested on: KM20L2 colon
OVCAR-4 ovarian = tested on: OVCAR-4 ovarian
A549 NSCLC = tested on: A549 NSCLC
RXF 393 renal = tested on: RXF 393 renal
UACC-257 melanoma = tested on: UACC-257 melanoma
SNB-75 CNS = tested on: SNB-75 CNS
HS 578T breast = tested on: HS 578T breast
M19-MEL melanoma = tested on: M19-MEL melanoma
SK-MEL-5 melanoma = tested on: SK-MEL-5 melanoma
HOP-18 NSCLC = tested on: HOP-18 NSCLC
COLO 205 colon = tested on: COLO 205 colon
CCRF-CEM leukemia = tested on: CCRF-CEM leukemia
A498 renal = tested on: A498 renal
HCT-15 colon = tested on: HCT-15 colon
SNB-78 CNS = tested on: SNB-78 CNS
MALME-3M melanoma = tested on: MALME-3M melanoma
HCC-2998 colon = tested on: HCC-2998 colon
SR leukemia = tested on: SR leukemia
OVCAR-5 ovarian = tested on: OVCAR-5 ovarian
K-562 leukemia = tested on: K-562 leukemia
IGROV1 ovarian = tested on: IGROV1 ovarian
SK-MEL-28 melanoma = tested on: SK-MEL-28 melanoma
KM12 colon = tested on: KM12 colon
MDA-MB-231 breast = tested on: MDA-MB-231 breast
UACC-62 melanoma = tested on: UACC-62 melanoma

COC1/C=C\C=C(/C)C(=O)Nc2cc3nc4ccc(Br)cc4oc-3c(c2=O)CC(C)CC(OC)C(O)C(C)/C=C(\C)C1OC(N)=O (stereo not drawn)
TGI (OVCAR-8 ovarian): 14.5 µM | GI50 (PC-3 prostate): 0.00574 µM | TGI (PC-3 prostate): 24.5 µM | GI50 (MDA-N): 0.0124 µM | TGI (MDA-N): 1.27 µM | TGI (SK-MEL-2 melanoma): 24.5 µM | TGI (SN12C renal): 6.36 µM | TGI (DLD-1 colon): 8.29 µM | TGI (CAKI-1 renal): 16.3 µM | GI50 (MDA-MB-435): 0.0342 µM | TGI (MDA-MB-435): 2.99 µM | TGI (LXFL 529 NSCLC): 9.42 µM | TGI (NCI-H226 lung): 17.7 µM | TGI (SNB-19 CNS): 29.4 µM | GI50 (786-0 renal): 0.00576 µM | TGI (786-0 renal): 12 µM | GI50 (MOLT-4 leukemia): 0.0031 µM | TGI (MOLT-4 leukemia): 0.466 µM | GI50 (LOX IMVI melanoma): 0.00271 µM | TGI (LOX IMVI melanoma): 0.959 µM | TGI (OVCAR-3 ovarian): 3.84 µM | GI50 (SW-620 colon): 0.000996 µM | TGI (SW-620 colon): 2.75 µM | TGI (U251 CNS): 28.7 µM | GI50 (BT-549 breast): 10.1 µM | TGI (BT-549 breast): 22.6 µM | GI50 (RPMI-8226 leukemia): 0.00867 µM | TGI (RPMI-8226 leukemia): 16 µM | TGI (SF-295 CNS): 25.8 µM | GI50 (NCI-H522 lung): 0.00141 µM | TGI (NCI-H522 lung): 0.142 µM | GI50 (HCT-116 colon): 0.00083 µM | TGI (HCT-116 colon): 4.92 µM | TGI (HT29 colon): 7.91 µM | TGI (EKVX NSCLC): 25.9 µM | GI50 (DU-145 prostate): 0.00403 µM | TGI (DU-145 prostate): 18 µM | GI50 (ACHN renal): 0.00459 µM | TGI (ACHN renal): 15.6 µM | TGI (HOP-62 NSCLC): 21.2 µM | TGI (DMS 273 small cell lung): 4.19 µM | GI50 (M14 melanoma): 0.00414 µM | TGI (M14 melanoma): 5.33 µM | TGI (DMS 114 small cell lung): 5.34 µM | TGI (SK-OV-3 ovarian): 15.3 µM | TGI (UO-31 renal): 4.05 µM | GI50 (SF-539 CNS): 0.00745 µM | TGI (SF-539 CNS): 11.3 µM | GI50 (NCI-H460 lung): 0.00446 µM | TGI (NCI-H460 lung): 17.9 µM | GI50 (HOP-92 NSCLC): 0.00757 µM | TGI (HOP-92 NSCLC): 4.81 µM | GI50 (TK-10 renal): 0.00681 µM | TGI (TK-10 renal): 17.6 µM | GI50 (HL-60(TB) leukemia): 0.000389 µM | TGI (SF-268 CNS): 18.1 µM | TGI (XF 498 CNS): 0.466 µM | TGI (KM20L2 colon): 3.65 µM | TGI (OVCAR-4 ovarian): 3.97 µM | TGI (A549 NSCLC): 22.7 µM | TGI (RXF 393 renal): 8.61 µM | GI50 (UACC-257 melanoma): 0.00321 µM | TGI (UACC-257 melanoma): 6.93 µM | TGI (SNB-75 CNS): 23.8 µM | TGI (HS 578T breast): 22.9 µM | TGI (M19-MEL melanoma): 2.26 µM | TGI (SK-MEL-5 melanoma): 9.44 µM | TGI (HOP-18 NSCLC): 17.3 µM | GI50 (COLO 205 colon): 0.000903 µM | TGI (COLO 205 colon): 0.169 µM | GI50 (CCRF-CEM leukemia): 0.00247 µM and 0.0182 µM | TGI (CCRF-CEM leukemia): 1.9 µM | TGI (A498 renal): 30.9 µM | GI50 (HCT-15 colon): 0.00583 µM | TGI (HCT-15 colon): 6.99 µM | TGI (SNB-78 CNS): 30 µM | GI50 (MALME-3M melanoma): 0.00493 µM | TGI (MALME-3M melanoma): 12.6 µM | GI50 (HCC-2998 colon): 0.00856 µM | TGI (HCC-2998 colon): 3.2 µM | GI50 (SR leukemia): 0.00272 µM | TGI (SR leukemia): 0.634 µM | GI50 (OVCAR-5 ovarian): 0.00434 µM | TGI (OVCAR-5 ovarian): 5.88 µM | GI50 (K-562 leukemia): 0.000503 µM | TGI (K-562 leukemia): 7.03 µM | GI50 (IGROV1 ovarian): 0.00312 µM | TGI (IGROV1 ovarian): 19.2 µM | GI50 (SK-MEL-28 melanoma): 0.000391 µM | TGI (KM12 colon): 13.4 µM | GI50 (MDA-MB-231 breast): 0.0321 µM | TGI (MDA-MB-231 breast): 11.5 µM | GI50 (UACC-62 melanoma): 0.00162 µM
